Measured values as given in patent publication US20180353462A1, “[…] AGENTS […] FLAVONOID DERIVATIVES TARGETING KINASES, SIRTUINS AND ONCOGENIC AGENTS FOR THE TREATMENT OF CANCERS” (priority 2015, published 2018).

Key:
[1] = tested on: A498 (Kidney); assay: WST-1 anticancer cell proliferation assay, A498; type: cell-based; settings: 72 hours
Procedure: (§1) Bioactivity of the above-described compounds has been verified by an anticancer cell proliferation assay using the WST-1 (4-[3-(4-iodophenyl)-2-(4-nitrophenyl)-2H-5-tetrazolio]-1, 3-benzene disulfonate) colorimetric assay by Roche Life Sciences®. Anticancer activity was tested against several standard cancer cell lines including brain, breast, Kaposi sarcoma, leukemia, lung, melanoma, tenosynovial giant cell tumor, ovarian, pancreatic, colon and prostate cancer. Cells were trypsinized and plated into 96 well plates in 50 μl of media and incubated overnight. The next day approximately 18 hours after plating, 50 μl of media containing the required flavonoid-based pharmaceutical composition was added per well. Cells were plated at a density so that 72 hours post drug addition, the cells will be in log phase (500)-2000 cells/well). The compounds and extracts were solubilized in Dimethyl sulfoxide (DMSO). The cells are allowed to proliferate for 72 hours 37° C. in humidified atmosphere of 5% CO2. The experiment is terminated using WST-1 (Roche®) 10 μl per well and absorbance is read at 450 nm %690 nm. The effect of drugs on growth is assessed as percent of cell viability. The IC50 values were determined from the extract dose versus control growth curves using Graphpad Prism® software. All experiments were carried out in duplicate and the mean results determined.

[2] = tested on: MCF-7 (Breast); assay: WST-1 anticancer cell proliferation assay, MCF-7; type: cell-based; settings: 72 hours
Procedure: as §1

[3] = biological target: T1, JAK3 (Homo sapiens, UniProt P52333); assay: Kinase competition binding assay, JAK3; settings: Table 1 kinase panel
T1 construct: made in house
T1 sequence (P52333 1-1124): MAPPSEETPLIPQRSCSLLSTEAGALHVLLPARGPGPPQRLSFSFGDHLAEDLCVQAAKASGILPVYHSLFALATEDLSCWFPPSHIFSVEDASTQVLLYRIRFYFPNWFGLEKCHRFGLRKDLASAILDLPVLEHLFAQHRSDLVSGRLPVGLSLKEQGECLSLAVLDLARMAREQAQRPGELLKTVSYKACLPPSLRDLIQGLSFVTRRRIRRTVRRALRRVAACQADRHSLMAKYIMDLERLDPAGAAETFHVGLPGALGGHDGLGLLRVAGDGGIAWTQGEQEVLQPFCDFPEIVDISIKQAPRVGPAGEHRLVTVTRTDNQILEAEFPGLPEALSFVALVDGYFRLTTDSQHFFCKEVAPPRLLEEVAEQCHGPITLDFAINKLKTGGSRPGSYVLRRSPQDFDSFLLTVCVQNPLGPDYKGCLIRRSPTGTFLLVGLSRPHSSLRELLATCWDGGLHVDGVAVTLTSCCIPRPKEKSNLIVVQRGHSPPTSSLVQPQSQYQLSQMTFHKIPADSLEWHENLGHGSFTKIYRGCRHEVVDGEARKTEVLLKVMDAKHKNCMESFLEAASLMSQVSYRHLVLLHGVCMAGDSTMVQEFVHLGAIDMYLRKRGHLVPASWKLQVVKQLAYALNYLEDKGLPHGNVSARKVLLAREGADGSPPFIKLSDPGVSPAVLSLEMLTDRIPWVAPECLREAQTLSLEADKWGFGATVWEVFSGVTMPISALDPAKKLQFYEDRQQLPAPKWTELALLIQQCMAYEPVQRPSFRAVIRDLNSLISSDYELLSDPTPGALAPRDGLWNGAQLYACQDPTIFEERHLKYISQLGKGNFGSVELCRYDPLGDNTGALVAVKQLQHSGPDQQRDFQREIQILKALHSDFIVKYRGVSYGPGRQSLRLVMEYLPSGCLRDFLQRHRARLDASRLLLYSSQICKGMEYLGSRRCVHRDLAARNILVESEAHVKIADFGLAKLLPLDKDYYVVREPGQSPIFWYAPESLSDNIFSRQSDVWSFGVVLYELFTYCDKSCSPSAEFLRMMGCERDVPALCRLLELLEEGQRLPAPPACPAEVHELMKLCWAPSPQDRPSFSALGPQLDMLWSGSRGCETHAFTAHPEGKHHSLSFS
Procedure: Cannabis flavonoids and their analogs were subjected to kinase inhibition assay. The compounds were first screened at a single concentration of 10 μM in the primary assay. […]. To determine the kd or IC50 values, competition binding assays were established, authenticated and executed as described previously. Fabian et al., “A Small Molecule-Kinase Interaction Map For Clinical Kinase Inhibitors.”, Nat Biotechnol, 23(3):329-36, Epub (2005). See also, Karaman et al., “A Quantitative Analysis Of Kinase Inhibitor Selectivity”, Nat. Biotechnol. […] For most assays, kinases were fused to T7 phage strains (Fabian, supra) and for the other assays, kinases were produced in HEK-293 cells after which they were tagged with DNA for quantitative PCR detection. In general, full-length constructs were used for small, single domain kinases, and catalytic domain constructs for large multi-domain kinases. The binding assays utilized streptavidin-coated magnetic beads treated with biotinylated small molecule ligands for 30 minutes at room temperature which generated affinity resins for the kinase assays. The liganded beads were blocked with excess biotin and washed with blocking buffer (SeaBlock (Pierce), 1% BSA, 0.05% Tween 20, 1 mM DTT) to remove unbound ligand and to reduce non-specific phage binding. […] Test compounds were prepared as 40× stocks in 100% DMSO and diluted directly into the assay (Final DMSO concentration=2.5%). All reactions were performed in polypropylene 384-well plates in a final volume of 0.04 ml. […] The beads were then re-suspended in elution buffer (1×PBS, 0.05% Tween 20, 0.5 μM non-biotinylated affinity ligand) and incubated at room temperature with shaking for 30 minutes. The kinase concentration in the eluates was measured by quantitative PCR. An illustration of the kinase interaction process is presented below. Kd/IC50 values were determined using a standard dose response curve using the hill equation. Curves were fitted using a non-linear least square fit with the Levenberg-Marquardt algorithm.
The compound(s) were screened at 10 μM and results for primary screen binding interactions are reported as ‘% Ctrl’, where lower numbers indicate stronger hits in the matrix.

[4] = tested on: UACC-62 (Melanoma); assay: WST-1 anticancer cell proliferation assay, UACC-62; type: cell-based; settings: 72 hours
Procedure: as §1

[5] = tested on: A549 (Lung); assay: WST-1 anticancer cell proliferation assay, A549; type: cell-based; settings: 72 hours
Procedure: as §1

[6] = tested on: RL (Lymphoma); assay: WST-1 anticancer cell proliferation assay, RL; type: cell-based; settings: 72 hours
Procedure: as §1

[7] = tested on: PC-3 (Prostate); assay: WST-1 anticancer cell proliferation assay, PC-3; type: cell-based; settings: 72 hours
Procedure: as §1

[8] = tested on: DLD-1 (Colon); assay: WST-1 anticancer cell proliferation assay, DLD-1; type: cell-based; settings: 72 hours
Procedure: as §1

[9] = biological target: MMP-7 (Homo sapiens, UniProt P09237); assay: Inhibition of matrix metalloproteinase, MMP-7; type: biochemical; settings: Table 3 Matrix metalloproteinase
Text: Inhibition of Sirtuins, Matrix Metalloproteinase, Bromodomains was Also Confirmed Using Standard Protocols and the Results are Present in Table 2.

[10] = tested on: HC-1 (Leukemia); assay: WST-1 anticancer cell proliferation assay, HC-1; type: cell-based; settings: 72 hours
Procedure: as §1

MMP-7, sequence (P09237 95-267): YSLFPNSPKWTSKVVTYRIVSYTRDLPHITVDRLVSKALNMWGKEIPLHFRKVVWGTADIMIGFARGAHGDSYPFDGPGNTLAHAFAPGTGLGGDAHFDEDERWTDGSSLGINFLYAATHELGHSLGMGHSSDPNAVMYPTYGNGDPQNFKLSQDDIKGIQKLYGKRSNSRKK

Compound | IC50 [1] | IC50 [2] | IC50 [3] | IC50 [4] | IC50 [5] | IC50 [6] | IC50 [7] | IC50 [8] | IC50 [9] | IC50 [10]
COc1cc(-c2cc(=O)c3c(O)cc(O)c(C/C=C(\C)CCC=C(C)C)c3o2)ccc1O [FBL-03C] | 14 µM | 12 µM | 780 nM | 14 µM | 9.4 µM | 12 µM | 20 µM | 13 µM |  | 
COc1cc(-c2cc(=O)c3c(O)c(CC=C(C)C)c(O)cc3o2)ccc1O [FBL-03B] |  |  | > 1000 nM |  |  |  |  |  | 17.5 µM | 29.7 µM
COc1cc(-c2cc(=O)c3c(O)cc(O)c(CC=C(C)C)c3o2)ccc1O [FBL-03G] |  |  | > 20000 nM |  |  |  |  |  | 3.35 µM | 5 µM
COc1cc(-c2cc(=O)c3c(O)c(C/C=C(\C)CCC=C(C)C)c(O)cc3o2)ccc1O [FBL-03A] | 17 µM | 17 µM | > 20000 nM | 27 µM | 17 µM | 5.9 µM | 26 µM | 15 µM |  | 
COc1ccc(-c2cc(=O)c3c(O)c(C/C=C(\C)CCC=C(C)C)c(O)cc3o2)cc1OC [FBL-03D] |  |  | > 30000 nM |  |  |  |  |  |  | 
